Test results as given in US20240217973A1, “IMIDAZOPYRIDINE COMPOUNDS AND USE THEREOF” (MEDSHINE DISCOVERY INC., priority 2021, published 2024).

What was measured:
[1] = system: HPBMC cells; assay: HPBMC experiment: CD69 on anti-human IgM stimulated B cells, flow cytometry; type: cell-based; conditions: B-cell, B cells isolated from PBMC, 48 hours
Protocol: • 1) Medium: RPMI Medium 1640+1% P/S+10% FBS • 2) MACS buffer: 2% FBS+1 mM EDTA in DPBS • 3) Staining buffer: DPBS+2% FBS • 1.2 Dilution of Compounds and Anti-Human IgM
The initial concentration of the compound to be tested was […], 3-fold dilution, 9 points, and it was added to a 96 well plate after dilution, 50 μL/ well.
The anti-human IgM was diluted according to Table 2 below, and added to the 96 well plate after dilution, 50 μL/well.
• 1) PBMC was removed from a liquid nitrogen tank, then resuscitated and thawed in a 37° C. water bath; • 2) Using a B cell olation kit, B cells were isolated from PBMC according to the instructions, and their viability and number were calculated using a cell counter.
Table 10 Number and viability of PBMC and B cells • 3) The cells were resuspended with 1640 culture medium to a final concentration of 1 M/mL. • 4) The B cells were spread at 0.1 M/ well (100 μL) into a 96-well flat-bottom plate already containing the compound and anti-IgM. • 5) The plate was incubated in a 37° C. CO2 incubator for 48 hours; […]

[2] = system: plasma proteins; assay: Plasma protein binding experiment (PPB), M; type: in vitro ADME, mouse; conditions: 2 μM, 4 hours dialysis
Protocol: Experimental operation: 995 μL of blank plasma of each genus was taken, 5 μL of working solution of test compound (400 μM) or working solution of warfarin (400 μM) was added, so that the final concentrations of the test compound and warfarin in the plasma sample was 2 μM. The sample was mixed thoroughly. The final concentration of the organic phase DMSO was 0.5%; 50 μL of plasma samples of the test compound and warfarin were pipetted into the sample receiving plate (three parallels), and the corresponding volume of the corresponding blank plasma or buffer was immediately added so that the final volume of each sample well was 100 μL, with a volume ratio of 1:1 for plasma: dialysis buffer, and then 500 μL of stop solution was added to these samples, and these samples would be used as a T0 sample for the recovery and stability determination. […] All samples were analyzed by LC/MS/MS after protein precipitation, and the protein binding rate and recovery rate were calculated by the formula: % Unbound=100*F/T, % Bound=100−% Unbound, % Recovery 100*(F+T) T0 (where F was the peak area ratio of the compound in the dialysate after 4 hours of dialysis; T was the peak area ratio of the compound in the plasma after 4 hours of dialysis, and T0 was the peak area ratio of the compound in the plasma sample at zero time).

[3] = Hepatocyte metabolic stability experiment (HMS), R; type: in vitro ADME; conditions: rat, R hepatocytes, read-out: HMS CLint(liver)
Protocol: (§1) Experimental operations: 198 μL of hepatocyte suspension (0.51×10^6 cells/mL) was added to the preheated incubation plate, and 198 μL of culture medium without hepatocytes was added to T0-MC and T120-MC incubation plates for the culture medium control group, and all incubation plates were pre-incubated for 10 minutes in a 37° C. incubator. Then 2 μL of the working solution of the test and control compounds were added and mixed well, and the incubation plate was immediately put into the plate shaker in the incubator, the rotation speed was adjusted to about 650 rpm, and the timer and the reaction were started. 2 duplicate samples for each compound were prepared at each time point. Incubation conditions: 37° C., saturated humidity, and containing 5% CO2. In the test system, the final concentration of the test compound was 1 μM, the final concentration of the control compound was 3 μM, the final concentration of hepatocytes was 0.5×10^6 cells/mL, and the final concentration of the total organic solvent was 0.96%, of which the final concentration of DMSO was 0.1%. […] All samples were mixed and analyzed by LC-MS/MS method. […]

[4] = Hepatocyte metabolic stability experiment (HMS), M; type: in vitro ADME; conditions: mouse, M hepatocytes, read-out: HMS CLint(liver)
Protocol: as §1

Nc1nccc2c1n(-c1ccc(Oc3ccccc3)cc1)c(=O)n2[C@@H]1CCCN(C(=O)/C=C/CF)C1 [Compound 002]
IC50 [1]: 3.6 nM
Unbound PPB [2]: 4.5%
CLint scaled at 1 μM [3]: 171 mL/min/kg
CLint scaled at 1 μM [4]: 702 mL/min/kg
